Test results from the kinase profiling compilation of Christmann-Franck et al. (2016).
“And” between values parts separate entries of the source, which are not always exact repeats. Identical values can stand only once.

Columns and labels:
Assay in all cases: radiometric filter-binding kinase assay, Kinase HotSpot
Details in all cases: compound 0.5 µM; ATP 10 µM
MELK (human) = MELK (human) (UniProt Q14680)
ADRBK1 (human) = ADRBK1 (human) (UniProt P25098)
PRKG1 (human) = PRKG1 (human) (UniProt Q13976)
NTRK3 (human) = NTRK3 (human) (UniProt Q16288)
CDK9 CCNT1 (human) = CDK9 CCNT1 (human) (UniProt P50750+O60563)
CSNK1A1 (human) = CSNK1A1 (human) (UniProt P48729)
MLTK (human) = MLTK (human) (UniProt Q9NYL2)
PRKCH (human) = PRKCH (human) (UniProt P24723)
TTK (human) = TTK (human) (UniProt P33981)
FYN (human) = FYN (human) (UniProt P06241)
PTK6 (human) = PTK6 (human) (UniProt Q13882)
SRMS (human) = SRMS (human) (UniProt Q9H3Y6)
SRPK1 (human) = SRPK1 (human) (UniProt Q96SB4)
NEK11 (human) = NEK11 (human) (UniProt Q8NG66)
FGFR2 (human) = FGFR2 (human) (UniProt P21802)
NUAK1 (human) = NUAK1 (human) (UniProt O60285)
LYN (human) = LYN (human) (UniProt P07948)
NTRK2 (human) = NTRK2 (human) (UniProt Q16620)
KIT (human) = KIT (human) (UniProt P10721)
CDK6 CCND1 (human) = CDK6 CCND1 (human) (UniProt Q00534+P24385)
RPS6KA1 KD1 KD2 (human) = RPS6KA1 KD1 KD2 (human) (UniProt Q15418)
MAP3K11 (human) = MAP3K11 (human) (UniProt Q16584)
MAPK9 (human) = MAPK9 (human) (UniProt P45984)
SRPK2 (human) = SRPK2 (human) (UniProt P78362)
LTK (human) = LTK (human) (UniProt P29376)
PHKG2 (human) = PHKG2 (human) (UniProt P15735)
MAPK3 (human) = MAPK3 (human) (UniProt P27361)
NEK1 (human) = NEK1 (human) (UniProt Q96PY6)
ULK1 (human) = ULK1 (human) (UniProt O75385)
NEK3 (human) = NEK3 (human) (UniProt P51956)
KDR (human) = KDR (human) (UniProt P35968)
RET (human) = RET (human) (UniProt P07949)
PTK2 (human) = PTK2 (human) (UniProt Q05397)
STK24 (human) = STK24 (human) (UniProt Q9Y6E0)
[1] = molecular target: JAK1 JH1 catalytic (human) (UniProt P23458)
CAMK1 (human) = CAMK1 (human) (UniProt Q14012)
RPS6KA5 KD2 (human) = RPS6KA5 KD2 (human) (UniProt O75582)
PAK6 (human) = PAK6 (human) (UniProt Q9NQU5)
EPHB1 (human) = EPHB1 (human) (UniProt P54762)
PNCK (human) = PNCK (human) (UniProt Q6P2M8)
CLK4 (human) = CLK4 (human) (UniProt Q9HAZ1)
RPS6KB2 (human) = RPS6KB2 (human) (UniProt Q9UBS0)

Sequence of RPS6KA5 KD2 (human) (O75582 whole entry, looked up): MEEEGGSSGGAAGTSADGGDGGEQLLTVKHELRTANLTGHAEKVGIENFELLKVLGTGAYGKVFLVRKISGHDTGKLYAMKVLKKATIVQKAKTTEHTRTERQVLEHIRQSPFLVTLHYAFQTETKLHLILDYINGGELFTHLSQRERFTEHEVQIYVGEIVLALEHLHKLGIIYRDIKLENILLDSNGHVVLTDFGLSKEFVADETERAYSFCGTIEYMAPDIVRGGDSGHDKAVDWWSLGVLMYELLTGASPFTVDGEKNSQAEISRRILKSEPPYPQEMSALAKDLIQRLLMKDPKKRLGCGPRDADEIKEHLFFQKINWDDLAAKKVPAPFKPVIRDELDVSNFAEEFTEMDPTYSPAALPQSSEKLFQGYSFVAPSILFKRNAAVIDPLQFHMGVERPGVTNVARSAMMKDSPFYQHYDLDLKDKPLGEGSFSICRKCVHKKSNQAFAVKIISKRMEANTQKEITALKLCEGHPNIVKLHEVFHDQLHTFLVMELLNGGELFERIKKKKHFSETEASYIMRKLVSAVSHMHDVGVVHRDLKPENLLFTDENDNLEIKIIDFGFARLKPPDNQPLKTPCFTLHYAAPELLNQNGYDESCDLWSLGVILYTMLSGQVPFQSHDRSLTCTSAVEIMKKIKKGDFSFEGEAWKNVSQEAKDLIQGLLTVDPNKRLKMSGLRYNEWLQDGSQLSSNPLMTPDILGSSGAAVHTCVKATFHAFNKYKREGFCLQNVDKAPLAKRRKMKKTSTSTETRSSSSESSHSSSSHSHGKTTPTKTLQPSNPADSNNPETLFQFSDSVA
Sequence of MAPK3 (human) (P27361 whole entry, looked up): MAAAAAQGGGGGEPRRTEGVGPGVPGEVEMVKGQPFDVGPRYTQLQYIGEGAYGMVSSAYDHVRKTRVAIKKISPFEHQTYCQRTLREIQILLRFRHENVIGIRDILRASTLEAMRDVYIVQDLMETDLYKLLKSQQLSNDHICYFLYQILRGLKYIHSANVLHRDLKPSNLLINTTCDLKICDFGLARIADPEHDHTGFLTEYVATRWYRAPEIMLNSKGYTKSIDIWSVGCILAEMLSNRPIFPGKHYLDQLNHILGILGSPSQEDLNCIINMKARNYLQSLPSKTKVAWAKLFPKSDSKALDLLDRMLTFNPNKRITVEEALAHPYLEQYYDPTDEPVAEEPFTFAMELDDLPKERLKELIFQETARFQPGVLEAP
Sequence of CSNK1A1 (human) (P48729 whole entry, looked up): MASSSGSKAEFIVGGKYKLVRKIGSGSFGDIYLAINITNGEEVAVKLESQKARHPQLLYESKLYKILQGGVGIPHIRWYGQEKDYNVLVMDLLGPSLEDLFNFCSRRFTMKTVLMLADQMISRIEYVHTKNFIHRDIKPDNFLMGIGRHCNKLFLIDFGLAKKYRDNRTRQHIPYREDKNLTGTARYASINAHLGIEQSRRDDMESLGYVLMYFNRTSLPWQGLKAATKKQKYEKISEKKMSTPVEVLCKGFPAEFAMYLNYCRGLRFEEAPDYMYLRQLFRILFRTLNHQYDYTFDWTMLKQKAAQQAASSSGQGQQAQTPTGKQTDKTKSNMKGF
Sequence of MAP3K11 (human) (Q16584 whole entry, looked up): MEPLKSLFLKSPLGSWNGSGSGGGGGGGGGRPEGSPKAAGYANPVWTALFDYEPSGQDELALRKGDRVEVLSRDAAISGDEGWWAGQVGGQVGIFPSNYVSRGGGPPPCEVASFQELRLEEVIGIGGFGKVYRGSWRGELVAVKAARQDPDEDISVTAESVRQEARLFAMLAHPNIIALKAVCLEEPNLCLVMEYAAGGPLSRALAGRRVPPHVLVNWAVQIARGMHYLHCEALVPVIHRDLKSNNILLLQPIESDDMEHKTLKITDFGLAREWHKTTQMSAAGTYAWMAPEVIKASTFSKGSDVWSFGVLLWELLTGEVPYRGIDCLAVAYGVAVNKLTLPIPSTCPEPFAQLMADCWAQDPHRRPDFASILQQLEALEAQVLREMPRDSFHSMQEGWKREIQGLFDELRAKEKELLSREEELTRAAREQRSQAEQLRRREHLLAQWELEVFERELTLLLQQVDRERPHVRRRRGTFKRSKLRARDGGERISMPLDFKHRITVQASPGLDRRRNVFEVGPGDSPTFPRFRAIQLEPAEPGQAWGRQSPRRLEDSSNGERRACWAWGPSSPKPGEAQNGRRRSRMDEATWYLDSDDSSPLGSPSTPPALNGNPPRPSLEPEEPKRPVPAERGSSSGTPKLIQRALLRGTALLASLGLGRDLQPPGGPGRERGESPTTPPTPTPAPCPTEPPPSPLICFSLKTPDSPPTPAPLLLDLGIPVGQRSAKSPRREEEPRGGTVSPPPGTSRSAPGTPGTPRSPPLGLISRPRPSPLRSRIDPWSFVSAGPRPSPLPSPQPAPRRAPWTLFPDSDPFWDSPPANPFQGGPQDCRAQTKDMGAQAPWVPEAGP
Sequence of CAMK1 (human) (Q14012 whole entry, looked up): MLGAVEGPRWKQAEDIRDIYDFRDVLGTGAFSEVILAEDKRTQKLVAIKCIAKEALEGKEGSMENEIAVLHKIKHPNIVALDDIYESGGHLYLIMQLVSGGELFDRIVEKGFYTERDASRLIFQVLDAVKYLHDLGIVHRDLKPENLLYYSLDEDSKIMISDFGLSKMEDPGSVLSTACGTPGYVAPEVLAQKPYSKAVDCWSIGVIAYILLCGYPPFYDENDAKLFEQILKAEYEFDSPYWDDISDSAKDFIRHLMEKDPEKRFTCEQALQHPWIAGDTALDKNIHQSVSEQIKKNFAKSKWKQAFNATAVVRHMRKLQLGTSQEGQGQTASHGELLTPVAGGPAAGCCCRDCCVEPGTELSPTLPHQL
Sequence of PTK2 (human) (Q05397 whole entry, looked up): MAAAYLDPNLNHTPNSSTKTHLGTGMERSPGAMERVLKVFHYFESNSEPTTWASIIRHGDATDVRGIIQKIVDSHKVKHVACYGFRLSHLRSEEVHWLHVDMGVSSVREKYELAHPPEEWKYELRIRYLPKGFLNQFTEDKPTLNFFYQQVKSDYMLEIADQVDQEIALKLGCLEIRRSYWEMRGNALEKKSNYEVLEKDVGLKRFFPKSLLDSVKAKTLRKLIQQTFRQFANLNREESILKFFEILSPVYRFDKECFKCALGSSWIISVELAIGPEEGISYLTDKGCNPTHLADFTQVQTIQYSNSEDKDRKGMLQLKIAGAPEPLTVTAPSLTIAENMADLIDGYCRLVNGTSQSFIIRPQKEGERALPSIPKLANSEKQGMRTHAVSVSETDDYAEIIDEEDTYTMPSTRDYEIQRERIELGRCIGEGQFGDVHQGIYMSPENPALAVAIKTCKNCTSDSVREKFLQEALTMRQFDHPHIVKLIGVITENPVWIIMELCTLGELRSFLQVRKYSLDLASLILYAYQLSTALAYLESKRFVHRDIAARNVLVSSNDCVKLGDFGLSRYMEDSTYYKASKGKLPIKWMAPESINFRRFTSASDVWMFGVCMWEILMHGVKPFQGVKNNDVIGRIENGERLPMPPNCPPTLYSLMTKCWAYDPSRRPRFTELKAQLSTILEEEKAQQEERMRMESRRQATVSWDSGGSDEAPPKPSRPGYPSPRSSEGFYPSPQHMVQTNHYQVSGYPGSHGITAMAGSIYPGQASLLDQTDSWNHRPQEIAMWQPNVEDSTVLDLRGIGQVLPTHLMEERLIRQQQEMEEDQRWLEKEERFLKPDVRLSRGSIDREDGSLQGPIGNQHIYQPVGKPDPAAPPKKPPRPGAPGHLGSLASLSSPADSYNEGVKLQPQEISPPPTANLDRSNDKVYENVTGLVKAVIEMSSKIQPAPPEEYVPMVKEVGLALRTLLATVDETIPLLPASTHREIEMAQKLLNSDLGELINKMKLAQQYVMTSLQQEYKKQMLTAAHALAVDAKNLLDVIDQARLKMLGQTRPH
Sequence of PTK6 (human) (Q13882 whole entry, looked up): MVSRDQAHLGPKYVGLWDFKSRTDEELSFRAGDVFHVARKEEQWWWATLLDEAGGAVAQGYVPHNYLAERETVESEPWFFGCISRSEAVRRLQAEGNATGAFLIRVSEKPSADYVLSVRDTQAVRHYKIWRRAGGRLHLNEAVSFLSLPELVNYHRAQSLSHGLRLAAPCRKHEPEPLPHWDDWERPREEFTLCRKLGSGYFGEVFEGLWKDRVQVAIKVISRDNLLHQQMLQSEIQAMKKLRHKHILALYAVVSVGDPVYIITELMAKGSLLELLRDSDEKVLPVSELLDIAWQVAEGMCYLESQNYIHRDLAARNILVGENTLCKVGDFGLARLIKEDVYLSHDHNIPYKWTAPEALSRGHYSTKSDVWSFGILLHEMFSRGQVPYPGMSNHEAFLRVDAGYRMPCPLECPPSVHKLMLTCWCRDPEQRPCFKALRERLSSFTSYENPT
Sequence of PRKG1 (human) (Q13976 whole entry, looked up): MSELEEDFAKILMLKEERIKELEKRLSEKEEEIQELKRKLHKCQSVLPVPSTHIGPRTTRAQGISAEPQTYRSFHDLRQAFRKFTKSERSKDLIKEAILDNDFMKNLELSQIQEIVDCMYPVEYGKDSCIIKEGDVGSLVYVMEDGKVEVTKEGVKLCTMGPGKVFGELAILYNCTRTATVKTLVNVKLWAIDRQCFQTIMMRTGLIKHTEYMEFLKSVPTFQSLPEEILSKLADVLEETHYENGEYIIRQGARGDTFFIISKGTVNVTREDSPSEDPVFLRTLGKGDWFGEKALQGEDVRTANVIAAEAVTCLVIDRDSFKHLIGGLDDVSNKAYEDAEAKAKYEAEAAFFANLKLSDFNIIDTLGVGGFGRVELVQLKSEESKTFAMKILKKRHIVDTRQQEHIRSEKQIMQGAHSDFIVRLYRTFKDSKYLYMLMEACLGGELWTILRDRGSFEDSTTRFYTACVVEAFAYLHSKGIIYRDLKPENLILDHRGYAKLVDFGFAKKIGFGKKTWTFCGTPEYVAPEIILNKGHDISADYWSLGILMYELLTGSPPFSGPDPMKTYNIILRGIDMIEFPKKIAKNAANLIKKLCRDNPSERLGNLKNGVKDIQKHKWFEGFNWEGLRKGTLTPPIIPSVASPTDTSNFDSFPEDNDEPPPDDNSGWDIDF

Structure (SMILES): O=C(Nc1ccc(Cl)cc1)c1ccccc1NCc1ccncc1
- residual activity (MELK (human)): 92.3%
- residual activity (ADRBK1 (human)): 98.2%
- residual activity (PRKG1 (human)): 86.8% and 92.3%
- residual activity (NTRK3 (human)): 97%
- residual activity (CDK9 CCNT1 (human)): 81.9%
- residual activity (CSNK1A1 (human)): 88.1%
- residual activity (MLTK (human)): 86%
- residual activity (PRKCH (human)): 96.2%
- residual activity (TTK (human)): 102%
- residual activity (FYN (human)): 97%
- residual activity (PTK6 (human)): 63.6%
- residual activity (SRMS (human)): 97.9%
- residual activity (SRPK1 (human)): 109%
- residual activity (NEK11 (human)): 104%
- residual activity (FGFR2 (human)): 95.7%
- residual activity (NUAK1 (human)): 96.5%
- residual activity (LYN (human)): 75.1% and 93.7%
- residual activity (NTRK2 (human)): 102%
- residual activity (KIT (human)): 33.6%
- residual activity (CDK6 CCND1 (human)): 93.4%
- residual activity (RPS6KA1 KD1 KD2 (human)): 92%
- residual activity (MAP3K11 (human)): 89%
- residual activity (MAPK9 (human)): 102%
- residual activity (SRPK2 (human)): 85.1%
- residual activity (LTK (human)): 104%
- residual activity (PHKG2 (human)): 97.1%
- residual activity (MAPK3 (human)): 102%
- residual activity (NEK1 (human)): 96%
- residual activity (ULK1 (human)): 86.9%
- residual activity (NEK3 (human)): 90.5%
- residual activity (KDR (human)): 28.2%
- residual activity (RET (human)): 58.9%
- residual activity (PTK2 (human)): 95.7%
- residual activity (STK24 (human)): 92.6%
- residual activity [1]: 91.8%
- residual activity (CAMK1 (human)): 103%
- residual activity (RPS6KA5 KD2 (human)): 92.5%
- residual activity (PAK6 (human)): 101%
- residual activity (EPHB1 (human)): 90.2%
- residual activity (PNCK (human)): 94.8%
- residual activity (CLK4 (human)): 107%
- residual activity (RPS6KB2 (human)): 105%

Structure (SMILES): O=c1cc(N2CCNCC2)oc2c(-c3ccccc3)cccc12
- residual activity (MELK (human)): 94.5%
- residual activity (ADRBK1 (human)): 109%
- residual activity (PRKG1 (human)): 100% and 102%
- residual activity (NTRK3 (human)): 99.8%
- residual activity (CDK9 CCNT1 (human)): 98.8%
- residual activity (CSNK1A1 (human)): 104%
- residual activity (MLTK (human)): 103%
- residual activity (PRKCH (human)): 97%
- residual activity (TTK (human)): 91.4%
- residual activity (FYN (human)): 104%
- residual activity (PTK6 (human)): 99.2%
- residual activity (SRMS (human)): 104%
- residual activity (SRPK1 (human)): 106%
- residual activity (NEK11 (human)): 97.9%
- residual activity (FGFR2 (human)): 98.9%
- residual activity (NUAK1 (human)): 95.5%
- residual activity (LYN (human)): 101% and 95.8%
- residual activity (NTRK2 (human)): 102%
- residual activity (KIT (human)): 101%
- residual activity (CDK6 CCND1 (human)): 94.6%
- residual activity (RPS6KA1 KD1 KD2 (human)): 104%
- residual activity (MAP3K11 (human)): 97.8%
- residual activity (MAPK9 (human)): 90.4%
- residual activity (SRPK2 (human)): 105%
- residual activity (LTK (human)): 96.9%
- residual activity (PHKG2 (human)): 96.9%
- residual activity (MAPK3 (human)): 119%
- residual activity (NEK1 (human)): 82.8%
- residual activity (ULK1 (human)): 107%
- residual activity (NEK3 (human)): 106%
- residual activity (KDR (human)): 99.8%
- residual activity (RET (human)): 106%
- residual activity (PTK2 (human)): 99%
- residual activity (STK24 (human)): 89.6%
- residual activity [1]: 108%
- residual activity (CAMK1 (human)): 99.2%
- residual activity (RPS6KA5 KD2 (human)): 99.1%
- residual activity (PAK6 (human)): 102%
- residual activity (EPHB1 (human)): 94.8%
- residual activity (PNCK (human)): 99.8%
- residual activity (CLK4 (human)): 88.9%
- residual activity (RPS6KB2 (human)): 91%

Structure (SMILES): Oc1ccc(-c2nc(-c3ccc(F)cc3)c(-c3ccncc3)[nH]2)cc1
- residual activity (MELK (human)): 102%
- residual activity (ADRBK1 (human)): 101%
- residual activity (PRKG1 (human)): 87% and 90.4%
- residual activity (NTRK3 (human)): 101%
- residual activity (CDK9 CCNT1 (human)): 83.4%
- residual activity (CSNK1A1 (human)): 62.3%
- residual activity (MLTK (human)): 98.8%
- residual activity (PRKCH (human)): 95%
- residual activity (TTK (human)): 103%
- residual activity (FYN (human)): 87.5%
- residual activity (PTK6 (human)): 50.3%
- residual activity (SRMS (human)): 102%
- residual activity (SRPK1 (human)): 109%
- residual activity (NEK11 (human)): 80.6%
- residual activity (FGFR2 (human)): 103%
- residual activity (NUAK1 (human)): 97.3%
- residual activity (LYN (human)): 94.8% and 98.4%
- residual activity (NTRK2 (human)): 102%
- residual activity (KIT (human)): 97.7%
- residual activity (CDK6 CCND1 (human)): 97.6%
- residual activity (RPS6KA1 KD1 KD2 (human)): 98.1%
- residual activity (MAP3K11 (human)): 25.2%
- residual activity (MAPK9 (human)): 93.4%
- residual activity (SRPK2 (human)): 102%
- residual activity (LTK (human)): 97.1%
- residual activity (PHKG2 (human)): 94.3%
- residual activity (MAPK3 (human)): 101%
- residual activity (NEK1 (human)): 98.9%
- residual activity (ULK1 (human)): 89%
- residual activity (NEK3 (human)): 99.3%
- residual activity (KDR (human)): 99.9%
- residual activity (RET (human)): 89.3%
- residual activity (PTK2 (human)): 96.9%
- residual activity (STK24 (human)): 95.2%
- residual activity [1]: 102%
- residual activity (CAMK1 (human)): 108%
- residual activity (RPS6KA5 KD2 (human)): 107%
- residual activity (PAK6 (human)): 104%
- residual activity (EPHB1 (human)): 96.8%
- residual activity (PNCK (human)): 99.7%
- residual activity (CLK4 (human)): 106%
- residual activity (RPS6KB2 (human)): 91.4%
